# Where two headings read alike, the source gives them in different places.
# Legend:
# S. pneumoniae A-9585 = experiment: In vitro MIC, tube dilution; format: cell-based; conditions: overnight incubation at 37° C., additional data table
# S. pyogenes A-9604 = experiment: In vitro MIC, tube dilution; format: cell-based; conditions: Nutrient Broth, overnight incubation at 37° C., additional data table
# S. aureus A-9537 = experiment: In vitro MIC, tube dilution; format: cell-based; conditions: overnight incubation at 37° C., additional data table; for MIC: Staphylococcus aureus
# [1] = test system: S. aureus A-9606 (Pen-res.); experiment: In vitro MIC, tube dilution; format: cell-based; conditions: Nutrient Broth, overnight incubation at 37° C., additional data table
# S. faecalis A20688 = experiment: In vitro MIC, tube dilution; format: cell-based; conditions: Nutrient Broth, overnight incubation at 37° C., additional data table
# E. coli A15119 = experiment: In vitro MIC, tube dilution; format: cell-based; conditions: Nutrient Broth, overnight incubation at 37° C., additional data table
# E. coli A20341-1 = experiment: In vitro MIC, tube dilution; format: cell-based; conditions: Nutrient Broth, overnight incubation at 37° C., additional data table
# K. pneumoniae A-9664 = experiment: In vitro MIC, tube dilution; format: cell-based; conditions: Nutrient Broth, overnight incubation at 37° C., additional data table
# K. pneumoniae A20468 = experiment: In vitro MIC, tube dilution; format: cell-based; conditions: Nutrient Broth, overnight incubation at 37° C., additional data table
# P. mirabilis A-9900 = experiment: In vitro MIC, tube dilution; format: cell-based; conditions: Nutrient Broth, overnight incubation at 37° C., additional data table
# P. vulgaris A21559 = experiment: In vitro MIC, tube dilution; format: cell-based; conditions: Nutrient Broth, overnight incubation at 37° C., additional data table
# P. morganii A15153 = experiment: In vitro MIC, tube dilution; format: cell-based; conditions: Nutrient Broth, overnight incubation at 37° C., additional data table
# P. rettgeri A22424 = experiment: In vitro MIC, tube dilution; format: cell-based; conditions: Nutrient Broth, overnight incubation at 37° C., additional data table
# S. marcescens A20019 = experiment: In vitro MIC, tube dilution; format: cell-based; conditions: Nutrient Broth, overnight incubation at 37° C., additional data table
# E. cloacae A-9656 = experiment: In vitro MIC, tube dilution; format: cell-based; conditions: Nutrient Broth, overnight incubation at 37° C., additional data table
# P. aeruginosa A-9843A [2] = experiment: In vitro MIC, tube dilution; format: cell-based; conditions: Nutrient Broth, overnight incubation at 37° C., additional data table
# P. aeruginosa A21213 = experiment: In vitro MIC, tube dilution; format: cell-based; conditions: Nutrient Broth, overnight incubation at 37° C., additional data table
# E. cloacae A-9659 = experiment: In vitro MIC, tube dilution; format: cell-based; conditions: Nutrient Broth, overnight incubation at 37° C., additional data table
# Text: N-formimidoyl thienamycin was included as a comparison compound.
# P. aeruginosa A-9843a [3] = experiment: Protective effect in the intramuscular treatment of infected mice (PD50); format: in vivo; conditions: Pseudomonas aeruginosa, A9843A, im, read-out: PD50/treatment, P. aeruginosa A9843A
# Method: The PD50 (dose in mg/kg required to give protection to 50% of the infected mice) is indicated.
# Treatment Schedule: Mice were treated i.m. with drugs 0 and 2 hours post-infection; 5 mice per dose were used for each test
# *For compound of Ex. 2, mice were infected i.p. with 2 × 10^9
# compounds of Ex. 4 and 5, mice were infected i.p. with ~9 ×
# were treated i.m. with drugs 0 and 2 h postinfection.
# [4] = Blood levels in mice after intramuscular administration; format: in vivo; conditions: mouse, blood, im, 20 mg/kg, intramuscular dose of 20 mg/kg; for AUC: read-out: Blood AUC; for half-life: read-out: Blood T1/2
# Text: Compounds were solubilized in 0.1 M phosphate buffer pH 7. Values are fro
# a single test; 4 mice used per compound.
# *t1/2 refers to halflife in minutes
# **AUC refers to the area under the blood concentrationtime curve
# (§1) Also shown is the urinary recovery in the mice.
# Compounds were solubilized in 0.1 M phosphate buffer, pH 7.
# Values based on a single test; 4 mice per compound.
# *T1/2 refers to halflife in minutes
# [5] = Urinary recovery after intramuscular administration to mice; format: in vivo; conditions: mouse, urine, im, 20 mg/kg, intramuscular dose of 20 mg/kg, 0-6 hour collection, read-out: Urine Recovery
# Method: Compounds were solubilized in 0.1 M phosphate buffer pH 7. Values are from a single test; 4 mice per compound.
# as §1
# ***Recovery based on 0-6 hour collection
# [6] = Half-life in phosphate buffer solution; format: physicochemical
# Method: A solution of para-nitrobenzyl 3-[2-(N-methylthiomorpholinium diphenylphosphate)ethylthio]-6α-[1'-(R)-hydroxyethyl]-7-oxo-1-azabicyclo[3.2.0]hept-2-ene-2-carboxylate (1.31 g, 1.76 mmol) in 0.1 M pH 7.4 phosphate buffer (48.8 mL), tetrahydrofuran (20 mL) and diethyl ether (20 mL) was hydrogenated over 10% pd/C (1.5 g) in a Parr shaker for 1 h at 40 psi. The reaction mixture was diluted with diethyl ether (40 mL) and the phases were separated. The organic phase was washed with water (2×5 mL). The aqueous phases were combined, filtered through a #52 hardened filter paper, washed with diethyl ether (2×20 mL) and pumped under vacuum. The aqueous solution was poured on a silica gel reverse phase column and the desired carbapenem was eluted with 5% acetonitrile-water.
# To a solution of p-nitrobenzyl (5R,6S)-3-[2-(1-methylmorpholino)ethylthio]-6-[(R)-1-hydroxyethyl]-7-oxo-1-azabicyclo[3.2.0]hept-2-ene-2-carboxylate diphenylphosphate (0.360 g, 0.49 mmol) in 13 mL of phosphate buffer (0.05 M pH 7.4) was added 0.36 g of 10% palladium-on-charcoal, 20 mL of tetrahydrofuran and 20 mL of diethyl ether. This mixture was hydrogenated (Parr) at 32 psi for 1 h. The mixture was filtered through Celite and the filter pad was washed with H2 O and diethyl ether. The aqueous phase was separated and the pH was adjusted to 7.0 with additional pH 7.4 phosphate buffer. After removing residual organic solvents in vacuo the aqueous solution was applied to a C18 reverse-phase column.
# To a solution of (5R,6S)paranitrobenzyl 3-[2-(1,4-dimethyl-1-piperazinium)ethylthio]-6-[1-(R)-hydroxyethyl]-7-oxo- 1-azabicyclo[3.2.0]hept-2-ene-2-carboxylate diphenylphosphate (0.47 g, 0.623 mmol) in wet tetrahydrofuran (25 mL) was added diethyl ether (25 mL), potassium phosphate monobasic-sodium hydroxide buffer (13 mL, pH 7.22) and 10% palladium on charcoal (0.47 g). The resulting mixture was hydrogenated at 23° C. under 40 psi for 1 h. The two layers were separated and the organic layer was extracted with water (2×7 mL).
# To a cold (-10° C.) solution of (5R,6S)-3-[2 -(N-methyl-thiomorpholinium)ethylthio]-6-[1-(R)-hydroxyethyl]-7-oxo-1-azabicyclo(3.2.0)-hept-2-ene-2-carboxylate (608 mg, 1.65 mmol) in a 1:1 mixture of acetonitrile-water (9 mL) was added m-chloroperbenzoic acid (334.8 mg, 1.65 mmol) in small portion over a 1 hour period. The mixture was then diluted with water (15 mL) and washed with diethyl ether (3×15 mL).
# A mixture of (5R,6S) paranitrobenzyl 3-[2-(1,4,4-trimethyl-1-piperazinium)ethylthio]-6-[1R-hydroxyethyl]-7-oxo- 1-azabicyclo(3.2.0)hept-2-ene-2-carboxylate bischloride (0.40 g, 0.68 mmol), phosphate buffer (30 mL, 0.05M, pH 7.0), tetrahydrofuran (10 mL), ether (30 mL) and 10% palladium on charcoal (0.40 g) was hydrogenated at 23° C. under 35 psi for 1 h. The two phases were separated. The organic phase was extracted with water (10 mL).
smiles,measurement,setting,value
"C[C@@H](O)[C@H]1C(=O)N2C(C(=O)[O-])=C(SCC[N+]3(C)CC[S+]([O-])CC3)C[C@H]12 (single isomer, unassigned) [Ex. 5 comp. A]",MIC S. pneumoniae A-9585,S. pneumoniae A-9585; Nutrient Broth,0.004 µg/mL
same,MIC S. pyogenes A-9604,S. pyogenes A-9604; tube dilution,0.004 µg/mL
same,MIC S. aureus-50% serum A-9537,"S. aureus A-9537; 50% serum, tube dilution",0.03 µg/mL
same,MIC S. aureus A-9537,"S. aureus A-9537; tube dilution, Nutrient Broth",0.016 µg/mL
same,MIC S. aureus (Pen-res.) A-9606,[1],0.03 µg/mL
same,MIC S. faecalis A20688,S. faecalis A20688; tube dilution,0.05 µg/mL
same,MIC E. coli A15119,E. coli A15119; tube dilution,0.03 µg/mL
same,MIC E. coli A20341-1,E. coli A20341-1; tube dilution,0.03 µg/mL
same,MIC K. pneumoniae A-9664,K. pneumoniae A-9664; tube dilution,0.06 µg/mL
same,MIC K. pneumoniae A20468,K. pneumoniae A20468; tube dilution,0.13 µg/mL
same,MIC P. mirabilis A-9900,P. mirabilis A-9900; tube dilution,0.13 µg/mL
same,MIC P. vulgaris A21559,P. vulgaris A21559; tube dilution,0.06 µg/mL
same,MIC M. morganii A15153,P. morganii A15153; tube dilution,0.13 µg/mL
same,MIC P. rettgeri A22424,P. rettgeri A22424; tube dilution,0.25 µg/mL
same,MIC S. marcescens A20019,S. marcescens A20019; tube dilution,0.06 µg/mL
same,MIC E. cloacae A-9656,E. cloacae A-9656; tube dilution,0.13 µg/mL
same,MIC P. aeruginosa A-9843a,P. aeruginosa A-9843A [2],32 µg/mL
same,MIC P. aeruginosa A21213,P. aeruginosa A21213; tube dilution,16 µg/mL
same,MIC E. cloacae A-9659,E. cloacae A-9659; tube dilution,0.13 µg/mL
same,ED50,P. aeruginosa A-9843a [3],> 12.5 mg/kg
same,Cmax,[4],10200 ng/mL
same,AUC,[4],3100 ng·h/mL
same,half-life,[4],7 min
same,dose excreted at 6 h,[5],14 ± 1%
same,half-life,"[6]; 0.065 m phosphate buffer, pH 7.4, 0.065 M, pH 7.4 phosphate buffer, 37° C., read-out: T 1/2 (solution stability) (converted)",12 h
"C[C@@H](O)[C@H]1C(=O)N2C(C(=O)[O-])=C(SCC[N+]3(C)CCOCC3)C[C@H]12 [Example 3, (5R,6S)-3-[2-(1-methylmorpholino)ethylthio]-6-[(R)-1-hydroxyethyl]-7-oxo-1-azabicyclo[3.2.0]hept-2-ene-2-carboxylate]",MIC,"S. pneumoniae A-9585; Streptococcus pneumoniae, A9585, Nutrient Broth",0.03 µg/mL
same,MIC,"S. pyogenes A-9604; Streptococcus pyogenes, A9604, tube dilution",0.03 µg/mL
same,MIC,"S. aureus A-9537; A9537, 50% serum, tube dilution, read-out: MIC S. aureus-50% serum A-9537",0.13 µg/mL
same,MIC,"S. aureus A-9537; A9537, tube dilution, Nutrient Broth, read-out: MIC S. aureus A-9537",0.03 µg/mL
same,MIC,"[1]; Staphylococcus aureus, read-out: MIC S. aureus (Pen-res.) A-9606",0.03 µg/mL
same,MIC,"S. faecalis A20688; Enterococcus faecalis, A20688, tube dilution",0.5 µg/mL
same,MIC,"E. coli A15119; Escherichia coli, A15119, tube dilution",0.03 µg/mL
same,MIC,"E. coli A20341-1; Escherichia coli, A203411, tube dilution",0.03 µg/mL
same,MIC,"K. pneumoniae A-9664; Klebsiella pneumoniae, A9664, tube dilution",0.13 µg/mL
same,MIC,"K. pneumoniae A20468; Klebsiella pneumoniae, A20468, tube dilution",0.25 µg/mL
same,MIC,"P. mirabilis A-9900; Proteus mirabilis, A9900, tube dilution",0.13 µg/mL
same,MIC,"P. vulgaris A21559; Proteus vulgaris, A21559, tube dilution",0.03 µg/mL
same,MIC,"P. morganii A15153; Morganella morganii, A15153, tube dilution, read-out: MIC M. morganii A15153",0.13 µg/mL
same,MIC,"P. rettgeri A22424; Providencia rettgeri, A22424, tube dilution",0.5 µg/mL
same,MIC,"S. marcescens A20019; Serratia marcescens, A20019, tube dilution",0.06 µg/mL
same,MIC,"E. cloacae A-9656; Enterobacter cloacae, A9656, tube dilution",0.5 µg/mL
same,MIC,"P. aeruginosa A-9843A [2]; Pseudomonas aeruginosa, A9843A",63 µg/mL
same,MIC,"P. aeruginosa A21213; Pseudomonas aeruginosa, A21213, tube dilution",8 µg/mL
same,MIC,"E. cloacae A-9659; Enterobacter cloacae, A9659, tube dilution",0.25 µg/mL
same,Cmax,[4],16200 ng/mL
same,AUC,[4],4800 ng·h/mL
same,half-life,[4],8 min
same,dose excreted at 6 h,[5],15 ± 3%
same,half-life,"[6]; phosphate buffer, pH 7.4, pH 7.4, 36.8° C., read-out: t1/2 (solution stability) (converted)",18.5 h
"C[C@@H](O)[C@H]1C(=O)N2C(C(=O)O)=C(SCC[N+]3(C)CC[N+](C)(C)CC3)C[C@H]12 [Example 6, (5R,6S)-3-[2-(1,4,4-Trimethyl-1-piperazinium)-ethylthio]-6-(1R-hydroxyethyl]-7-oxo-1-azabicyclo(3.2.0)hept-2-ene-2-carboxylate chloride]",half-life,"[6]; phosphate buffer, pH 7.4, concentration of 10^-4 M in phosphate buffer pH 7.4 at 36.8° C., read-out: t1/2 (solution stability) (converted)",9.8 h
